Measurements taken from ChEMBL document CHEMBL1130224, “5-(N-oxyaza)-7-substituted-1,4-dihydroquinoxaline-2,3-diones: novel, systemically active and broad spectrum antagonists for NMDA/glycine, AMPA, and kainate receptors” (J Med Chem, 1997).

Tests used:
[1] = target: T1, Glutamate receptor ionotropic, AMPA (Rattus norvegicus, UniProt P19490+P19491+P19492+P19493)
Description: Binding affinity in rat brain cortical membranes by the displacement of [3H]AMPA at Ionotropic glutamate receptor AMPA

Glutamate NMDA receptor = assay: Displacement of [3H]DCKA at N-methyl-D-aspartate glutamate receptor 1; assay type: protein-complex assay, Rattus norvegicus
[2] = Partition coefficient determined using octanol versus pH 7.4 buffer; assay type: physicochemical; conditions: octanol/pH 7.4 buffer
Mus musculus [3] = species on record: Mus musculus; assay: Anticonvulsant activity tested in mouse; assay type: functional
[4] = target: Glutamate receptor ionotropic, AMPA (Rattus norvegicus) (UniProt P19491+P19492+P19493+P19490); assay: Inhibition of Ionotropic glutamate receptor AMPA was measured in oocytes expressing rat cerebral cortex poly (A)+ RNA; assay type: functional, cell-based; conditions: Oocyte
[5] = target: Glutamate receptor ionotropic, NMDA 1 (Rattus norvegicus) (UniProt P35439); assay: Inhibition of N-methyl-D-aspartate glutamate receptor 1 was measured in oocytes expressing the cloned rat NMDA receptor subunit combination NR1A/2C; assay type: functional, cell-based; conditions: Oocyte
[6] = target: Glutamate receptor ionotropic, kainate; assay: Displacement of [3H]kainate from rat brain cortical membrane Ionotropic glutamate receptor kainate
[7] = target: T2, Glutamate receptor ionotropic, NMDA 1 (Rattus norvegicus, UniProt P35439); assay: Binding affinity in rat brain cortical membranes by the displacement of [3H]- DCKA at N-methyl-D-aspartate glutamate receptor 1; assay type: cell membranes
Mus musculus [8] = species on record: Mus musculus; assay: Mouse maximum electroshock induced test seizure test in mice; assay type: functional
[9] = target: Glutamate receptor ionotropic, NMDA 1 (Rattus norvegicus) (UniProt P35439); assay: Inhibition of NMDA/glycine receptors was measured in oocytes expressing the cloned rat NMDA receptor subunit combination NR1A/2C; assay type: functional, cell-based; conditions: Oocyte
Rattus norvegicus = assay: Reduction in cortical infarct volume when 20 mg/kg administarted Iv bolus followed by 14 mg/kg /h IV infusion for 22 hr in rat peramanent middle cerebral artery (MCA); assay type: functional
[10] = The steady state selectivity index for inhibition of NMDA/glycine receptors was estimated by dividing Kb (AMPA) by Kb (NMDA/glycine)
Mus musculus [11] = assay: Antinociceptive activity in mouse tail flick test, when administered intrathecally; assay type: functional
Mus musculus [12] = assay: Antinociceptive activity of tail flick test in mice, when administarted intrathecally; assay type: functional
[13] = target: T1, Glutamate receptor ionotropic, AMPA; assay: Inhibition of binding of [3H]AMPA to Ionotropic glutamate receptor AMPA in rat brain membrane; assay type: cell membranes
[14] = target: T2, Glutamate receptor ionotropic, NMDA 1; assay: Inhibition of binding of [3H]DCKA to N-methyl-D-aspartate glutamate receptor 1 in rat brain membrane; assay type: cell membranes

Compound	IC50 [1]	IC50 (Glutamate NMDA receptor)	logD [2]	IC50 [6]	ED50 (Mus musculus [3])	other results
O=C1Nc2cc(Cl)ccc2CC1[N+](=O)[O-] (configuration not stated)						Kb [4]: 9.2 µM; Kb [5]: 6.7 µM
Oc1nc2cc(Cl)cnc2nc1O	38 µM	2.2 µM		22 µM		
Cc1cnc2nc(O)c(O)nc2c1	67 µM	41 µM		49 µM		
CN1CCc2c([N+](=O)[O-])cc3[nH]c(=O)c(=O)[nH]c3c2C1		0.37 µM		0.36 µM		ED50 (Mus musculus [8]): 0.44 mg/kg
Oc1nc2cc(Br)cnc2nc1O	32 µM	4.1 µM		16 µM		
[O-][n+]1cc(Cl)cc2nc(O)c(O)nc21	9.9 µM	0.82 µM	-2.66	5.3 µM	0.82 mg/kg	Kb [9]: 0.63 µM; Kb [4]: 3.9 µM; Reduction (Rattus norvegicus): 67%; Selectivity index [10]: 6.2
Oc1nc2cc(C(F)(F)F)cnc2nc1O	18 µM	1.9 µM		16 µM		
NS(=O)(=O)c1cccc2c1c([N+](=O)[O-])cc1nc(O)c(O)nc12 [NBQX]						ED50 (Mus musculus [12]): 1.6 ug mouse-1; ED50 (Mus musculus [8]): 13.1 mg/kg
O=[N+]([O-])c1ccc2cc(NS(=O)(=O)C(F)(F)F)c(O)nc2c1						IC50 [13]: 0.63 µM; IC50 [14]: 0.62 µM
Cc1cc2[nH]c(=O)c(=O)[nH]c2[n+]([O-])c1	14 µM		-2.91	11.9 µM	0.97 mg/kg	IC50 [7]: 5.9 µM
O=c1[nH]c2ccc(Cl)cc2[nH]c1=O	52 µM			52 µM		

More lines, main results first:

IC50 [1]	IC50 (Glutamate NMDA receptor)	logD [2]	IC50 [6]	Compound	ED50 (Mus musculus [3])	other results
1.5 µM	0.0059 µM	0.21		O=c1[nH]c2cc(Cl)c(Cl)c([N+](=O)[O-])c2[nH]c1=O [LICOSTINEL]	4 mg/kg	
7.7 µM	3.8 µM		15 µM	O=[N+]([O-])c1ccc2nc(O)c(O)nc2c1		
3.3 µM	1.1 µM	-0.97	4.4 µM	O=[N+]([O-])c1cnc2nc(O)c(O)nc2c1	4.5 mg/kg	Kb [4]: 1.4 µM; Kb [5]: 0.43 µM
6.7 µM		-2.48	3.4 µM	[O-][n+]1cc(Br)cc2nc(O)c(O)nc21	0.87 mg/kg	IC50 [7]: 1 µM
5.9 µM		-2.35	7.5 µM	O=c1[nH]c2cc(C(F)(F)F)c[n+]([O-])c2[nH]c1=O	6.3 mg/kg	IC50 [7]: 1.05 µM
1.3 µM		-3.31	2.4 µM	O=c1[nH]c2cc([N+](=O)[O-])c[n+]([O-])c2[nH]c1=O	4.6 mg/kg	IC50 [7]: 0.69 µM; ED50 (Mus musculus [11]): 2.6 ug mouse-1
